# In US20080108665A1, “Use of N-substituted sulfoximines for control of invertebrate pests” (priority 2006, published 2008):
# Legend:
# Type in all cases: in vivo
# [1] = tested on: Green Peach Aphid (Myzus persicae); test: Green peach aphid root uptake assay on pepper; conditions: 3 days after infestation
# Procedure: These assays were designed to evaluate the possibility of using the compounds identified in the foregoing examples for applications such as nursing trays, transplanting water and/or irrigation. Systemic activity against green peach aphid was evaluated in a root uptake assay. Bell peppers (Capsicum annum var. California Wonder) were used as test plants seeded and grown in rock wool plugs. Plants were grown to expanding 1st true leaf stage. The rock wool plugs containing individual plants were placed in 1-ounce cups and surrounded with white clean sand. Five plants were used for each treatment. A volume of 5 mL of the test solutions was applied to each cup (each plant). After insecticide application, the seedlings were infested with green peach aphids and held in a growth chamber (25° C., 50% RH, 16 hr light: 8 hr dark). Number of live aphids on each plant was counted at 3 days after infestation. Calculations for % Control were based on a corrected basis compared to the populations on the reference plants.
# Corrected % Control=100*(X−Y)/X • where X=No. of live aphids on reference plants • Y=No. of live aphids on treated plants Assay 1: Compound (3) was tested at a dose range of 5-500 μg/plant. A stock solution of 1000 ppm (1 mg/mL) was made by dissolving technical test compound in acetone:ethanol (90:10). The highest test concentration (100 ppm, 500 μg/5 ml) was prepared by diluting 2.5 mL stock solution with 22.5 mL DI water. The lower test concentrations (25 mL) were similarly prepared by diluting aliquots of the stock solution with DI water. Reference plants received DI water only.
# Assay 2: Compound (2) was tested at a dose range of 0.08-50 μg/plant. A stock solution of 1000 ppm was made by dissolving 2 mg of technical test compound in 2 mL acetone. The highest test concentration (10 ppm, 50 μg/5 ml) was prepared by diluting 0.32 mL stock solution with 1.6 mL acetone and 30.08 mL DI water, containing 6% acetone. Lower test concentrations were prepared by sequentially diluting 6.5 mL higher concentration (start from the 10 ppm test solution) with 26.0 ml acetone: DI water (6:94). The solvent/diluent system (6% acetone) was used as reference.
# [2] = tested on: Green Leafhopper (Nephotettix sp.); test: Green leafhopper root uptake assay on rice; conditions: 6-day observation
# Procedure: These assays were designed to evaluate the possibility of using compounds of the invention for applications such as nursing trays, transplanting water and/or irrigation. Root-uptake systemic assays were performed on both brown planthopper and green leafhopper. Four-week-old rice seedlings were submerged in 3-cm depth of water in the bottom portion (high 5 cm, diameter 3 cm) of a 2-part glass cylinder (high 18 cm, diameter 3 cm). A metal screen was used to hold the seedlings within the bottom portion. Scotch tape was used to bind the two portions of the cylinder after setting up the seedlings. A metal cap was used to cover the cylinder. There were 4 cylinders for each treatment. The test compound was dissolved in acetone to make a 10,000 ppm stock solution which was incorporated at final test concentrations of 5, 2, 1, 0.5, 0.25 ppm in the water in which rice seedlings were submerged. Five laboratory-reared 3rd instar nymphs of brown planthopper or green leafhopper were introduced into each cylinder 3 hr after insecticide application. The treated test units were kept in a growth chamber with conditions set as followings: Temperature 28±0.5° C.; Relative humidity 70±0.5%; Photoperiod 14 hr light: […].
# [3] = tested on: Bird Cherry-Oat Aphid (Rhopalosiphum padi); test: Bird cherry-oat aphid seed coating assay on wheat; conditions: 1.34 mg/seed, 10% SC formulation, 4 days after infestation
# Procedure: Twenty spring wheat (Triticum aestivum var. Yuma) seeds were placed on a waxed paper. A pipette was used to apply a 10% SC formulation of the test compound to each seed. Two application of 6.7 μl each were applied to a seed, waiting until the seed was air-dried between applications. The total amount of active ingredient applied to each seed was 1.34 mg. All coated seeds are planted into 3 inch pots containing greenhouse metro mix, with 4 seeds used in each pot. An appropriate number of untreated seeds was also planted for control. The pots are placed on a California cart and moved into a greenhouse for initial and subsequent sub-watering. When the plants had germinated and grown to the 1-2 leaf unfurled stage, they were infested with bird cherry-oat aphid. The infested plants were held in an environmental chamber (23° C., 40% RH, 16 hr light: 8 hr dark) for 4 days before an assessment of aphid populations was conducted. Calculations for % Control are based on a corrected basis compared to the populations on the untreated controls.
# Corrected % Control=100*(X−Y)/X • where X=No. of live aphids on untreated plants • Y=No. of live aphids on treated plants
# [4] = tested on: Cat Flea (Ctenocephalides felis); test: Cat flea filter wool assay; conditions: 48-hour exposure, mean
# Procedure: Compound (2) was evaluated in a dose response series to establish the range of activity of the test compound. Technical material was dissolved in acetone and diluted with the same solvent to obtain the test concentrations. Bioassays were conducted by treating polyester aquarium filter wool with 1.0 ml of the test solution, thoroughly saturating the substrate and allowing it to dry for at least 1 hour. The dry filter wool was then placed into 10 cm plastic Petri dishes and covered with the lid. Each treatment was replicated 5 times. Approximately 15 unfed cat flea adults were placed into each replicate of each dosage being evaluated. Mortality was assessed at 2, 8, 24 and 48 hours after introduction of the fleas into the test system. The mean percent mortality for each dosage group and time interval was determined and results from the 48-hour observation are presented in Table 8.
# [5] = tested on: Brown Dog Tick (Rhipicephalus sanguineus); test: Brown dog tick glass plate assay; conditions: 48-hour exposure, mean
# Procedure: Compound (2) was evaluated in a dose response series to establish the range of activity of the test compound. Technical material was dissolved in acetone and diluted with the same solvent to obtain the test concentrations. Tick bioassays were conducted by applying 1.0 ml of the test substance to clean dry glass plates confined by 10 cm grease pencil circles drawn on the plates and spread evenly with an acid brush. The plates were allowed to dry for at least 1 hour before adult ticks were confined to the treated substrate using 10 cm Petri dish lids. Each treatment was replicated 5 times. Approximately 5 adult ticks were placed into each replicate. Mortality was assessed at 2, 8, 24 and 48 hours after introduction of the ticks into the test system. The mean percent mortality for each dosage group and time interval was determined and results from the 48-hour observation are presented in Table 9.
smiles,measurement,setting,value
"CC(c1ccc(Cl)nc1)S(C)(=O)=NC#N (stereo not drawn) [Compound 2, [1-(6-chloropyridin-3-yl)ethyl](methyl)oxido-λ^4-sulfanylidenecyanamide]","% Control, root uptake systemic",[1]; 0.08 μg/plant,41%
same,"% Control, root uptake systemic",[1]; 0.4 μg/plant,48%
same,"% Control, root uptake systemic",[1]; 2 μg/plant,95%
same,"% Control, root uptake systemic",[1]; 10 μg/plant,99%
same,"% Control, root uptake systemic Green leafhopper",[2]; 0.25 ppm in water,45%
same,"% Control, root uptake systemic Green leafhopper",[2]; 0.50 ppm in water,65%
same,"% Control, root uptake systemic Green leafhopper",[2]; 1.00 ppm in water,100%
same,"% Control, root uptake systemic Green leafhopper",[2]; 2.00 ppm in water,100%
same,"% Control, root uptake systemic Green leafhopper",[2]; 5.00 ppm in water,100%
same,"% Control, seed coating systemic",[3],100%
same,% Flea mortality,"[4]; 5,000.0 ppm",100%
same,mortality at 0.5 ppm,"[4]; Ctenocephalides felis, 0.5 ppm",52.4%
same,mortality at 5 ppm,"[4]; Ctenocephalides felis, 5.0 ppm",74.4%
same,mortality at 50 ppm,"[4]; Ctenocephalides felis, 50.0 ppm",76.6%
same,mortality at 500 ppm,"[4]; Ctenocephalides felis, 500.0 ppm",83.8%
same,mortality at 5 ppm,[5]; 5.0 ppm,52%
same,mortality at 50 ppm,[5]; 50.0 ppm,56%
same,mortality at 500 ppm,[5]; 500.0 ppm,84%
